The results in this text go back to patent publication US11203574B2 (BioCryst Pharmaceuticals, Inc., priority 2014, dated 2021).

For the test, the target named is human plasma kallikrein (Homo sapiens (Human), UniProt P03952). Nature of the test: Plasma kallikrein activity assay (chromogenic substrate S2302). It counts as biochemical. The conditions noted are these: 2 nM kallikrein, 80 μM S2302, 30° C., pH 7.8; Ki by Cheng-Prusoff equation; values given as ranges; read-out: Ki.
Chain of human plasma kallikrein (P03952 whole entry, looked up): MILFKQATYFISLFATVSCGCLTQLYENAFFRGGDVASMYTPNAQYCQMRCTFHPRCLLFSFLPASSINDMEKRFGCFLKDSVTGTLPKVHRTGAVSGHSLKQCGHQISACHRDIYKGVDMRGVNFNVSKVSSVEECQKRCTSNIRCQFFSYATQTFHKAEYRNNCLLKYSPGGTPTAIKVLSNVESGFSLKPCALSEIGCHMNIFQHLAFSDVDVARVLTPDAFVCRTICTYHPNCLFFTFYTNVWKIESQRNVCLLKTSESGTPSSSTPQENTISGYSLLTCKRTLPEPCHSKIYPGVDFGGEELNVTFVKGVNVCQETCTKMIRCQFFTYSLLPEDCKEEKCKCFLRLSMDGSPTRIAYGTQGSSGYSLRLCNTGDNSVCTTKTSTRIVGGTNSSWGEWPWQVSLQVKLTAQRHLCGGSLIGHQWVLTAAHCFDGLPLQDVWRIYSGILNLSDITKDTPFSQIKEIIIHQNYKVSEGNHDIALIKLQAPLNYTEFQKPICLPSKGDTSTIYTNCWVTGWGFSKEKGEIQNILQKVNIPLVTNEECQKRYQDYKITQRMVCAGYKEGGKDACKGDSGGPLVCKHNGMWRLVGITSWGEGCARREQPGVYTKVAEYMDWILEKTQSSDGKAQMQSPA
Chain of human plasma kallikrein (P03952 whole entry partner, looked up): as the sequence (P03952 whole entry, looked up) above

On to `NCc1cccc(-n2nc(C(F)(F)F)cc2C(=O)Nc2cccc(C(OCC3CC3)c3ccccn3)c2)c1` (racemic) [43f, 1-(3-(aminomethyl)phenyl)-N-(3-((cyclopropylmethoxy)(pyridin-2-yl)methyl)-phenyl)-3-(trifluoromethyl)-1H-pyrazole-5-carboxamide], for which the Ki – broadly, the equilibrium dissociation constant of an inhibitor or competing ligand from its target – was 0.1 to 50 nM.
To `NCc1cccc(-n2nc(C(F)(F)F)cc2C(=O)Nc2cccc(C(OCC3CC3)c3cccnc3)c2)c1` (racemic) [44c, 1-(3-(aminomethyl)phenyl)-N-(3-((cyclopropylmethoxy)(pyridin-3-yl)methyl)phenyl)-3-(trifluoromethyl)-1H-pyrazole-5-carboxamide] belongs 0.1 to 50 nM.
Consider `NCc1cccc(-n2nc(C(F)(F)F)cc2C(=O)Nc2cccc(C(O)(CCC3CC3)c3ccccc3)c2)c1` (racemic) [46g, 1-(3-(aminomethyl)phenyl)-N-(3-(3-cyclopropyl-1-hydroxy-1-phenylpropyl)phenyl)-3-(trifluoromethyl)-1H-pyrazole-5-carboxamide], for which the Ki is 0.1 to 50 nM.
Consider `NCc1cccc(-n2nc(C(F)(F)F)cc2C(=O)Nc2cccc(C(O)(CCC3CC3)c3cccnc3)c2)c1` (racemic) [47f, 1-(3-(aminomethyl)phenyl)-N-(3-(3-cyclopropyl-1-hydroxy-1-(pyridin-3-yl)propyl)phenyl)-3-(trifluoromethyl)-1H-pyrazole-5-carboxamide], for which the Ki lay within 0.1 to 50 nM.
Regarding `NCc1cccc(-n2nc(C(F)(F)F)cc2C(=O)Nc2cccc(C(OCC3CC3)c3ccccn3)c2)c1` (single isomer, unassigned; (+)) [43h, (+)-1-(3-(aminomethyl)phenyl)-N-(3-((cyclopropylmethoxy)(pyridin-2-yl)methyl)-phenyl)-3-(trifluoromethyl)-1H-pyrazole-5-carboxamide], the Ki was in the range of 0.1 to 50 nM.
To `NCc1cccc(-n2nc(C(F)(F)F)cc2C(=O)Nc2cccc(C(OCC3CC3)c3cccnc3)c2)c1` (single isomer, unassigned; (+)) [44d, (+)-1-(3-(aminomethyl)phenyl)-N-(3-((cyclopropylmethoxy)(pyridin-3-yl)methyl)phenyl)-3-(trifluoromethyl)-1H-pyrazole-5-carboxamide] belongs 0.1 to 50 nM; to `NCc1cccc(-n2nc(C(F)(F)F)cc2C(=O)Nc2cccc(C(O)(CCC3CC3)c3ccccc3)c2)c1` (single isomer, unassigned; (+)) [46h, (+)-1-(3-(aminomethyl)phenyl)-N-(3-(3-cyclopropyl-1-hydroxy-1-phenylpropyl)phenyl)-3-(trifluoromethyl)-1H-pyrazole-5-carboxamide], 0.1 to 50 nM.
For `NCc1cccc(-n2nc(C(F)(F)F)cc2C(=O)Nc2cccc(C(O)(CCC3CC3)c3cccnc3)c2)c1` (single isomer, unassigned; (+)) [47h, (+)-1-(3-(aminomethyl)phenyl)-N-(3-(3-cyclopropyl-1-hydroxy-1-(pyridin-3-yl)propyl)phenyl)-3-(trifluoromethyl)-1H-pyrazole-5-carboxamide], the Ki was 0.1 to 50 nM.
To `NCc1cccc(-n2nc(C(F)(F)F)cc2C(=O)Nc2cccc(C(OCC3CC3)c3cccc(N)c3)c2)c1` (single isomer, unassigned; (+)) [64b, (+)-1-(3-(aminomethyl)phenyl)-N-(3-((3-aminophenyl)(cyclopropyl-methoxy)methyl)phenyl)-3-(trifluoromethyl)-1H-pyrazole-5-carboxamide] belongs 0.1 to 50 nM.
Take `NCc1cccc(-n2nc(C(F)(F)F)cc2C(=O)Nc2cccc(C(OCC3CC3)c3ccccc3)c2)c1` (single isomer, unassigned; (+)) [166e, (+)-1-(3-(aminomethyl)phenyl)-N-(3-((cyclopropylmethoxy)(phenyl)methyl)phenyl)-3-(trifluoromethyl)-1H-pyrazole-5-carboxamide]: the Ki fell in the range of 0.1 to 50 nM.
As to `NCc1cccc(-n2nc(C(F)(F)F)cc2C(=O)Nc2cc(C(N)(CCC3CC3)c3ccncc3)ccc2F)c1` (single isomer, unassigned; (+)) [216d, (+)-N-(5-(1-amino-3-cyclopropyl-1-(pyridin-4-yl)propyl)-2-fluorophenyl)-1-(3-(aminomethyl)phenyl)-3-(trifluoromethyl)-1H-pyrazole-5-carboxamide], the Ki lay within 0.1 to 50 nM.
In the case of `N#Cc1ccc(C(N)(CCC2CC2)c2cccc(NC(=O)c3cc(C(F)(F)F)nn3-c3cccc(CN)c3)c2)cc1` (single isomer, unassigned; (+)) [218c, (+)-N-(3-(1-amino-1-(4-cyanophenyl)-3-cyclopropylpropyl)phenyl)-1-(3-(aminomethyl)phenyl)-3-(trifluoromethyl)-1H-pyrazole-5-carboxamide], the Ki lay within 0.1 to 50 nM.
In the case of `N#Cc1cccc(C(N)(CCC2CC2)c2cccc(NC(=O)c3cc(C(F)(F)F)nn3-c3cccc(CN)c3)c2)c1` (single isomer, unassigned; (+)) [219c, (+)-N-(3-(1-amino-1-(3-cyanophenyl)-3-cyclopropylpropyl)phenyl)-1-(3-(aminomethyl)phenyl)-3-(trifluoromethyl)-1H-pyrazole-5-carboxamide] it was 0.1 to 50 nM.
Turning to `N#Cc1cccc(C(N)(CCC2CC2)c2ccc(F)c(NC(=O)c3cc(C(F)(F)F)nn3-c3cccc(CN)c3)c2)n1` (single isomer, unassigned; (+)) [220f, (+)-N-(5-(1-amino-1-(6-cyanopyridin-2-yl)-3-cyclopropylpropyl)-2-fluorophenyl)-1-(3-(aminomethyl)phenyl)-3-(trifluoromethyl)-1H-pyrazole-5-carboxamide], the Ki fell in the range of 0.1 to 50 nM.
In the case of `NCc1cccc(-n2nc(C(F)(F)F)cc2C(=O)Nc2cc(C(N)(CCC3CC3)c3ccc(C(N)=O)nc3)ccc2F)c1` (single isomer, unassigned; (+)) [221i, (+)-5-(1-amino-1-(3-(1-(3-(aminomethyl)phenyl)-3-(trifluoromethyl)-1H-pyrazole-5-carboxamido)-4-fluorophenyl)-3-cyclopropylpropyl)picolinamide] it was 0.1 to 50 nM; in that of `NCc1cccc(-n2nc(C(F)(F)F)cc2C(=O)Nc2cc(C(N)(CCC3CC3)c3ccc(C(N)=O)cc3)ccc2F)c1` (single isomer, unassigned; (+)) [228a, (+)-N-(5-(1-amino-1-(4-carbamoylphenyl)-3-cyclopropylpropyl)-2-fluorophenyl)-1-(3-(aminomethyl)phenyl)-3-(trifluoromethyl)-1H-pyrazole-5-carboxamide], 0.1 to 50 nM; in that of `N#Cc1ccc(C(N)(CCC2CC2)c2ccc(F)c(NC(=O)c3cc(C(N)=O)nn3-c3cccc(CN)c3)c2)cc1` (single isomer, unassigned; (+)) [231d, (+)-N^5-(5-(1-amino-1-(4-cyanophenyl)-3-cyclopropylpropyl)-2-fluorophenyl)-1-(3-(aminomethyl)phenyl)-1H-pyrazole-3,5-dicarboxamide], 0.1 to 50 nM.
On to `N#Cc1cccc(C(NCC2CC2)c2ccc(F)c(NC(=O)c3cc(C(F)(F)F)nn3-c3cccc(C(=N)N)c3)c2)c1` (single isomer, unassigned; (+)) [236h, (+)-1-(3-carbamimidoylphenyl)-N-(5-((3-cyanophenyl)(cyclopropylmethylamino)methyl)-2-fluorophenyl)-3-(trifluoromethyl)-1H-pyrazole-5-carboxamide], for which the Ki is 0.1 to 50 nM.
`N#Cc1cccc(C(N)(CCC2CC2)c2ccc(F)c(NC(=O)c3cc(C(F)(F)F)nn3-c3cccc(C(=N)N)c3)c2)c1` (single isomer, unassigned; (+)) [237a, (+)-N-(5-(1-amino-1-(3-cyanophenyl)-3-cyclopropylpropyl)-2-fluorophenyl)-1-(3-carbamimidoylphenyl)-3-(trifluoromethyl)-1H-pyrazole-5-carboxamide]: the Ki was 0.1 to 50 nM.
As for `N=C(N)c1cccc(-n2nc(C(F)(F)F)cc2C(=O)Nc2cc(C(N)(CCC3CC3)c3cccnc3)ccc2F)c1` (single isomer, unassigned; (+)) [238d, (+)-N-(5-(1-amino-3-cyclopropyl-1-(pyridin-3-yl)propyl)-2-fluorophenyl)-1-(3-carbamimidoylphenyl)-3-(trifluoromethyl)-1H-pyrazole-5-carboxamide], the Ki lay within 0.1 to 50 nM.
For `N#Cc1ccc(C(N)(CCC2CC2)c2ccc(F)c(NC(=O)c3cc(C(F)(F)F)nn3-c3cccc(C(=N)N)c3)c2)cc1` (single isomer, unassigned; (+)) [241a, (+)-N-(5-(1-amino-1-(4-cyanophenyl)-3-cyclopropylpropyl)-2-fluorophenyl)-1-(3-carbamimidoylphenyl)-3-(trifluoromethyl)-1H-pyrazole-5-carboxamide], the Ki was 0.1 to 50 nM.
For `Nc1nccc2ccc(-n3nc(C(F)(F)F)cc3C(=O)Nc3cc(C(N)(CCC4CC4)c4ccncc4)ccc3F)cc12` (single isomer, unassigned; (+)) [253e, (+)-N-(5-(1-amino-3-cyclopropyl-1-(pyridin-4-yl)propyl)-2-fluorophenyl)-1-(1-aminoisoquinolin-7-yl)-3-(trifluoromethyl)-1H-pyrazole-5-carboxamide], the inhibition constant (Ki) is 0.1 to 50 nM.
In the case of `N#Cc1ccc(C(N)(CCC2CC2)c2ccc(F)c(NC(=O)c3cc(C(F)(F)F)nn3-c3ccc4ccnc(N)c4c3)c2)cc1` (single isomer, unassigned; (+)) [254c, (+)-N-(5-(1-amino-1-(4-cyanophenyl)-3-cyclopropylpropyl)-2-fluorophenyl)-1-(1-aminoisoquinolin-7-yl)-3-(trifluoromethyl)-1H-pyrazole-5-carboxamide], the Ki lay within 0.1 to 50 nM.
Regarding `Nc1nccc2ccc(-n3nc(C(F)(F)F)cc3C(=O)Nc3cc(C(N)(CCC4CC4)c4ccccc4)ccc3F)cc12` (single isomer, unassigned; (+)) [255a, (+)-N-(5-(1-amino-3-cyclopropyl-1-phenylpropyl)-2-fluorophenyl)-1-(1-aminoisoquinolin-7-yl)-3-(trifluoromethyl)-1H-pyrazole-5-carboxamide], the Ki was in the range of 0.1 to 50 nM.
For the compound `N#Cc1cccc(C(N)(CCC2CC2)c2ccc(F)c(NC(=O)c3cc(C(F)(F)F)nn3-c3ccc4ccnc(N)c4c3)c2)c1` (single isomer, unassigned; (+)) [256a, (+)-N-(5-(1-amino-1-(3-cyanophenyl)-3-cyclopropylpropyl)-2-fluorophenyl)-1-(1-aminoisoquinolin-7-yl)-3-(trifluoromethyl)-1H-pyrazole-5-carboxamide], the Ki lay in the range of 0.1 to 50 nM.
